The values that follow are results of earlier work, collected in US20080262086A1, “SUBSTITUTED ANTHRANILIC ACIDS” (AUSPEX PHARMACEUTICALS, INC., priority 2007, published 2008).

The half-life is how long it takes for the measured level to halve.

Series [1] relates to reabsorption of sodium, potassium, and chloride. Particulars: times more potent than furosemide.
For series [2] the following is noted: short half-life of bumetanide, background.

`CCCCNc1cc(C(=O)O)cc(S(N)(=O)=O)c1Oc1ccccc1` [Bumetanide, 3-Butylamino-4-phenoxy-5-sulfamoyl-benzoic acid]: in series [1], the “potency relative to furosemide” value is “approximately 40 times”. Moreover, the half-life in series [2] was 1 to 1.5 h.
